Test results taken from US20230146507A1, “N-PHENYL-3-MERCAPTOPROPANAMIDE DERIVATIVES AS METALLO-BETA-LACTAMASE INHIBITORS FOR THE TREATMENT OF BACTERIAL INFECTIONS” (Helmholtz-Zentrum Für Infektionsforschung GmbH, priority 2020, published 2023).
In brackets after ≈: the same amount, converted by molar mass.

Columns and labels:
E. coli NDM-5 (T2351) = test: MIC assay, clinical isolate; assay type: cell-based
[1] = test system: S. marcescens NDM-1 (T2352); test: MIC assay, clinical isolate; assay type: cell-based; details: S. marcescens NDM-1 (T2352)
E. coli KPC-2 (T2435) = test: MIC assay, clinical isolate; assay type: cell-based; details: intrinsic antimicrobial activity
E. cloacae GIM-1 (T2218) = test: MIC assay, clinical isolate; assay type: cell-based; details: E. cloacae GIM-1 (T2218)
[2] = test system: K. pneumoniae NDM-1 (T2301); test: MIC assay, clinical isolate; assay type: cell-based
E. coli NDM-1 (T2359) = test: Checkerboard assay with imipenem, E. coli NDM-1 (T2359); assay type: cell-based
Protocol: (§1) Fractional inhibitory concentration index (FICI). The checkerboard assay was performed to test for synergy in vitro. […] FICIs≤0.5 were defined as synergistic; FICIs from >0.5 to […] were defined as additive; FICIs from 1 to ≤4 were defined as indifferent and FICIs>4 were defined as antagonistic (Doern, C. D. When Does 2 plus 2 Equal 5? A Review of Antimicrobial Synergy Testing. J. Clin. Microbial. 2014, 52 (12), 4124-4128. https://doi.org/10.1128/JCM.01121-14).

[3] = test system: A. baumannii OXA-23 (T2434); test: MIC assay, clinical isolate; assay type: cell-based; details: intrinsic antimicrobial activity
VIM-1 = molecular target: T1, VIM-1 (Pseudomonas aeruginosa, UniProt A0A0F7KYQ8); test: In vitro inhibition assay (kinetic fluorescence-based activity assay), VIM-1; assay type: biochemical; details: Means and SD of at least two independent experiments
T1 construct: made in house
Protocol: (§2) Protein expression and purification. The expression of IMP-7, VIM-1, and NDM-1 was performed according to the protocol previously published by Klingler et al. (Klingler, F. M.; Wichelhaus, T. A.; Frank, D.; Cuesta-Bernal, J.; El-Delik, J.; Müller, H. F.; Sjuts, H.; Gottig, S.; Koenigs, A.; Pos, K. M.; et al. Approved Drugs Containing Thiols as Inhibitors of Metallo-β-Lactamases: Strategy to Combat Multidrug-Resistant Bacteria. J. Med. Chem. 2015, 58 (8), 3626-3630. https://doi.org/10.1021/jm501844d) with slight modifications.
(§3) In vitro inhibition assay. Activity assays for NDM-1, VIM-1, VIM-2 and IMP-7 were carried out, as described by Klingler et al. Final protein concentrations were 0.5 nM (NDM-1), 4.0 nM (VIM-1), and 0.1 nM (IMP-7) in a 50 mM HEPES buffer (pH 7.5, 0.01% Triton X-100) Substrate (Fluorocillin™ (Invitrogen, Darmstadt, Germany) was dissolved in assay buffer to a final concentration of 888 nM. Test compounds were dissolved and pre-diluted in DMSO (final concentration: 1%). In a black polystyrol 96-well plate (Corning) an amount of […] of the respective inhibitor solution at different concentrations was incubated with […] of respective protein containing buffer for 30 minutes at room temperature. […] of substrate solution was added. The readout of the emitted fluorescence was started immediately (45 s for 30 cycles) using a Tecan Infinite F200Pro (Tecan Group Ltd; excitation at 495 nm and emission at 525 nm). Blank controls were performed without enzyme. Positive controls were performed with enzyme but without inhibitor. The inhibitory activity of each test compound was measured in three independent experiments. For calculation of IC50 values, data obtained from measurements with eight different inhibitor concentrations were used. For the evaluation of the sigmoidal dose response equation (variable slope with four parameters) GraphPad Prism 5 (GraphPad Software, La Jolla, Calif., USA) was used.

[4] = test system: different isolates from E. coli and P. aeruginosa; test: MIC assay, intrinsic antibacterial activity; assay type: cell-based; details: compound alone
E. coli VIM-1 (T2544) = test: Checkerboard assay with imipenem, E. coli VIM-1 (T2544); assay type: cell-based
Protocol: as §1

[5] = test system: P. aeruginosa VIM-1 (T2357); test: MIC assay, clinical isolate; assay type: cell-based; details: intrinsic antimicrobial activity
[6] = test system: P. aeruginosa IMP-1 (T2325); test: MIC assay, clinical isolate; assay type: cell-based; details: P. aeruginosa IMP-1 (T2325)
E. coli IMP-1 (T2360) = test: Checkerboard assay with imipenem, E. coli IMP-1 (T2360); assay type: cell-based
Protocol: as §1

IMP-7 = IMP-7 (Pseudomonas aeruginosa, UniProt Q93AU3); test: In vitro inhibition assay (kinetic fluorescence-based activity assay), IMP-7; assay type: biochemical; details: Means and SD of at least two independent experiments
Protocol: as §2, §3

E. coli NDM-7 (T2239) = test: MIC assay, clinical isolate; assay type: cell-based; details: E. coli NDM-7 (T2239)
E. cloacae NDM-1 (T2311) = test: MIC assay, clinical isolate; assay type: cell-based
E. cloacae VIM-1 (T2353) = test: MIC assay, clinical isolate; assay type: cell-based
NDM-1 = molecular target: T2, NDM-1 (Klebsiella pneumoniae, UniProt C7C422); test: In vitro inhibition assay (kinetic fluorescence-based activity assay), NDM-1; assay type: biochemical; details: Means and SD of at least two independent experiments
T2 construct: made in house
Protocol: as §2, §3

E. coli producing NDM-1 = test: MIC of imipenem in the presence of HIPS1686; assay type: cell-based
[7] = intrinsic antimicrobial activity

T2 sequence (C7C422 29-270, looked up, species assumed): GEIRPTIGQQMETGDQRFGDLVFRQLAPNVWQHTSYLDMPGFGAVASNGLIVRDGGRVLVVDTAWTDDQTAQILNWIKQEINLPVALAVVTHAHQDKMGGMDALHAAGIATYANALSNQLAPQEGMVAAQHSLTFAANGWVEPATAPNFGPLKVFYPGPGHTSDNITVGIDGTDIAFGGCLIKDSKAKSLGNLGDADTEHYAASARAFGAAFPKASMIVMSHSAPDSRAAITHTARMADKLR
IMP-7, sequence (Q93AU3 entry or part of it): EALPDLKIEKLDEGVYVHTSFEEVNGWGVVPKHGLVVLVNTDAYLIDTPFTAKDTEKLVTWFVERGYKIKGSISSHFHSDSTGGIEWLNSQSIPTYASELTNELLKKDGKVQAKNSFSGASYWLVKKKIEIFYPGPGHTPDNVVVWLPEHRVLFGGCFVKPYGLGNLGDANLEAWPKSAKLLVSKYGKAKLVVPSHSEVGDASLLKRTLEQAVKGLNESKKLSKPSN

O=C(CCS)Nc1cccc(C(=O)O)c1 [HIPS5694, 3-(3-mercaptopropanamido)benzoic acid]
MIC (mg/L) Imipenem (+HIPS 5694 128 mg/L) (E. coli NDM-5 (T2351); +HIPS 5694 128 mg/L): 2 mg/L (≈ 8.88 µM) | HIPS 5694 MIG (E. coli NDM-5 (T2351); [7]): >256 mg/L | MIC (mg/L) Imipenem (+HIPS 5694 128 mg/L) ([1]; +HIPS 5694 128 mg/L): 4 mg/L (≈ 17.8 µM) | HIPS 5694 MIG [1, 7]: >256 mg/L | HIPS 5694 MIG (E. coli KPC-2 (T2435)): >256 mg/L | HIPS 5694 MIG (E. cloacae GIM-1 (T2218); [7]): >256 mg/L | MIC (mg/L) Imipenem (+HIPS 5694 128 mg/L) ([2]; +HIPS 5694 128 mg/L): 0.5 mg/L (≈ 2.22 µM) | HIPS 5694 MIG [2, 7]: >256 mg/L | Imipenem MIC (E. coli NDM-1 (T2359); Table 6, +2 mg/L compound): 128 µg/mL | Imipenem MIC (E. coli NDM-1 (T2359); Table 6, +4 mg/L compound): 128 µg/mL | Imipenem MIC (E. coli NDM-1 (T2359); Table 6, +8 mg/L compound): 64 µg/mL | Imipenem MIC (E. coli NDM-1 (T2359); Table 6, +16 mg/L compound): 64 µg/mL | Imipenem MIC (E. coli NDM-1 (T2359); Table 6, +32 mg/L compound): 8 µg/mL | Imipenem MIC (E. coli NDM-1 (T2359); Table 6, +64 mg/L compound): 2 µg/mL | Imipenem MIC (E. coli NDM-1 (T2359); Table 6, +128 mg/L compound): ≤0.5 µg/mL | HIPS 5694 MIG [3]: >256 mg/L | IC50 (VIM-1): 1.2 µM | intrinsic antibacterial activity (MIC) [4]: no intrinsic antibacterial activity | Imipenem MIC (E. coli VIM-1 (T2544); +2 mg/L compound): 32 µg/mL | Imipenem MIC (E. coli VIM-1 (T2544); +4 mg/L compound): 32 µg/mL | Imipenem MIC (E. coli VIM-1 (T2544); +8 mg/L compound): 32 µg/mL | Imipenem MIC (E. coli VIM-1 (T2544); +16 mg/L compound): 16 µg/mL | Imipenem MIC (E. coli VIM-1 (T2544); +32 mg/L compound): 16 µg/mL | Imipenem MIC (E. coli VIM-1 (T2544); +64 mg/L compound): 8 µg/mL | Imipenem MIC (E. coli VIM-1 (T2544); +128 mg/L compound): 0.5 µg/mL | HIPS 5694 MIG [5]: >256 mg/L | HIPS 5694 MIG [6, 7]: >256 mg/L | Imipenem MIC (E. coli IMP-1 (T2360); +2 mg/L compound): 2 µg/mL | Imipenem MIC (E. coli IMP-1 (T2360); +4 mg/L compound): 2 µg/mL | Imipenem MIC (E. coli IMP-1 (T2360); +8 mg/L compound): 1 µg/mL | Imipenem MIC (E. coli IMP-1 (T2360); +16 mg/L compound): 1 µg/mL | Imipenem MIC (E. coli IMP-1 (T2360); +32 mg/L compound): 1 µg/mL | Imipenem MIC (E. coli IMP-1 (T2360); +64 mg/L compound): 0.5 µg/mL | Imipenem MIC (E. coli IMP-1 (T2360); +128 mg/L compound): 0.5 µg/mL | IC50 (IMP-7): 6.4 ± 0.6 µM | MIC (mg/L) Imipenem (+HIPS 5694 128 mg/L) (E. coli NDM-7 (T2239); +HIPS 5694 128 mg/L): 2 mg/L (≈ 8.88 µM) | HIPS 5694 MIG (E. coli NDM-7 (T2239); [7]): >256 mg/L | MIC (mg/L) Imipenem (+HIPS 5694 128 mg/L) (E. cloacae NDM-1 (T2311); +HIPS 5694 128 mg/L): 1 mg/L (≈ 4.44 µM) | HIPS 5694 MIG (E. cloacae NDM-1 (T2311); [7]): >256 mg/L | MIC (mg/L) Imipenem (+HIPS 5694 128 mg/L) (E. cloacae VIM-1 (T2353); +HIPS 5694 128 mg/L): 2 mg/L (≈ 8.88 µM) | HIPS 5694 MIG (E. cloacae VIM-1 (T2353); [7]): >256 mg/L | IC50 (NDM-1): 4 µM

O=C(CCS)Nc1ccccc1C(=O)O [HIPS1686]
MIC (mg/L) Imipenem (+HIPS1686 256 mg/L) (E. coli NDM-5 (T2351); +HIPS1686 256 mg/L): 2 mg/L (≈ 8.88 µM) | MIC (mg/L) Imipenem (+HIPS1686 256 mg/L) ([1]; +HIPS1686 256 mg/L): 4 mg/L (≈ 17.8 µM) | MIC (mg/L) Imipenem (+HIPS1686 256 mg/L) (E. cloacae GIM-1 (T2218); +HIPS1686 256 mg/L): 0.5 mg/L (≈ 2.22 µM) | MIC (E. coli producing NDM-1; Escherichia coli): > 1020 µg/mL | MIC of imipenem in the presence of HIPS1686 (E. coli producing NDM-1; HIPS1686 constant 64 μg/ml): 4 µg/mL | MIC of imipenem in the presence of HIPS1686 (E. coli producing NDM-1; HIPS1686 constant 256 μg/ml): 1 µg/mL | MIC of imipenem in the presence of HIPS1686 (E. coli producing NDM-1; HIPS1686 constant 1024 μg/ml): 1 µg/mL | MIC (mg/L) Imipenem (+HIPS1686 256 mg/L) ([2]; +HIPS1686 256 mg/L): 1 mg/L (≈ 4.44 µM) | Imipenem MIC (E. coli NDM-1 (T2359); Table 4, +4 mg/L HIPS1686, median of three experiments): 64 µg/mL | Imipenem MIC (E. coli NDM-1 (T2359); Table 4, +8 mg/L HIPS1686, median of three experiments): 64 µg/mL | Imipenem MIC (E. coli NDM-1 (T2359); Table 4, +16 mg/L HIPS1686, median of three experiments): 64 µg/mL | Imipenem MIC (E. coli NDM-1 (T2359); Table 4, +32 mg/L HIPS1686, median of three experiments): 16 µg/mL | Imipenem MIC (E. coli NDM-1 (T2359); Table 4, +64 mg/L HIPS1686, median of three experiments): 8 µg/mL | Imipenem MIC (E. coli NDM-1 (T2359); Table 4, +128 mg/L HIPS1686, median of three experiments): 2 µg/mL | Imipenem MIC (E. coli NDM-1 (T2359); Table 4, +256 mg/L HIPS1686, median of three experiments): 2 µg/mL | IC50 (VIM-1): 2.2 ± 0.2 µM | intrinsic antibacterial activity (MIC) [4]: no intrinsic antibacterial activity | MIC (mg/L) Imipenem (+HIPS1686 256 mg/L) ([6]; +HIPS1686 256 mg/L): 32 mg/L (≈ 142 µM) | IC50 (IMP-7): 4.1 ± 0.3 µM | MIC (mg/L) Imipenem (+HIPS1686 256 mg/L) (E. cloacae NDM-1 (T2311); +HIPS1686 256 mg/L): 1 mg/L (≈ 4.44 µM) | MIC (mg/L) Imipenem (+HIPS1686 256 mg/L) (E. cloacae VIM-1 (T2353); +HIPS1686 256 mg/L): 4 mg/L (≈ 17.8 µM) | IC50 (NDM-1): 3.4 ± 0.1 µM
